Read-outs that look alike come from different tables or passages of the source.
System: RSV A2 strain
Assay: In vitro CPE (CytoPathic Effect) inhibition effect evaluation test, RSV type A
Format: cell-based
Protocol: The test sample is diluted in advance to an appropriate concentration with DMSO, and 3-fold series of serial dilutions were prepared on a 384-well plate (0.32 μL/well). HEp-2 cells (CCL-23; ATCC) adjusted at appropriate number (2.4×10^5 cells/mL) in 2% FBS E-MEM (prepared by adding kanamycin and FBS to Eagle's Minimum Essential Medium; Invitrogen) were added at 12.5 μL/well to the 384-well plate previously aliquoted with the test samples. The RSV A2 strain was diluted to an appropriate concentration in a culture medium and added to the 384-well plate containing the test sample at 12.5 μL/well. The culture medium was added additionally to the 384-well plate, and the test was started with 50 μL/well. Control wells were prepared with only virus-free culture medium. The plate was incubated in a 5% CO2 incubator at 37° C. for 4 days, and the plate was then placed at room temperature for 30 minutes. CellTiter-Glo (registered trademark) 2.0 assay (Promega) was added at 15 μL/well, mixed for 30 seconds, and the plate was placed for approximately 1 hour. The luminescent signal was then measured by EnVision (PerkinElmer). The inhibitory effect of the test agents on RSV-induced CPE was calculated as 0% and 100% inhibition rate for each sample concentration based on the level of remaining viable cells by CellTiter-Glo (registered trademark) 2.0, with the EC50 value for each compound calculated by nonlinear regression as the concentration that inhibits RSV-induced CPE by 50%. In the case of evaluation against RSV type B, RSV B (Wash/18537 strain) was infected in the same manner as the type A, cultured for 5 days, and quantitated in the same manner as for the A2 strain.

[1] = human respiratory syncytial virus, inhibitory effect against RSV type A (RSV A2 strain), HEp-2 cells, CPE inhibition, read-out: EC50
[2] = inhibitory effect against RSV type A (RSV A2 strain), HEp-2 cells, CPE inhibition, read-out: EC50

Q: Which EC50 [1] does the source give for `O=C(NC(C(=O)O)C1CCCCC1)c1cnc(N2CCc3cc(OC4CCN(c5ncccn5)CC4)ccc32)nc1C(F)(F)F` (racemic) [Compound I-50] here?
A: The EC50 was 10 to 100 nM.

Q: For `O=C(NC1(C(=O)O)CCCCC1)c1cnc(N2CCc3cc(OCC4CN(CC(F)(F)F)CCO4)ccc32)nc1C(F)(F)F` (racemic) [Compound I-58], which EC50 [1] is on record?
A: The EC50 was 10 to 100 nM.

Q: `O=C(NC1(C(=O)O)CCCCC1)c1cnc(N2CCc3cc(OCC4CN(c5ncccn5)CCO4)ccc32)nc1C(F)(F)F` (racemic) [Compound I-66] was tested. Which EC50 [1] did it give?
A: Its EC50 is 10 to 100 nM.

Q: For `NC(=O)C1CC1c1ccc2c(c1)CCN2c1ncc(C(=O)NC2(C(=O)O)C3CC4CC(C3)CC2C4)c(C(F)(F)F)n1` (racemic) [Compound I-215], which EC50 [1] is on record?
A: The EC50 was 10 to 100 nM.

Q: `CNC(=O)C1CC1c1ccc2c(c1)CCN2c1ncc(C(=O)NC2(C(=O)O)C3CC4CC(C3)CC2C4)c(C(F)(F)F)n1` (racemic) [Compound I-216] was tested. Which EC50 [1] did it give?
A: Its EC50 is 10 to 100 nM.

Q: With `O=C(NC1(C(=O)O)C2CC3CC(C2)CC1C3)c1cnc(-c2cn(C3CCC(F)(F)CC3)c3ccc(OC4CCCN(C5COC5)C4)cc23)nc1C(F)(F)F` (racemic) [Compound I-233] as the compound, how does the EC50 [1] read?
A: The EC50 was 10 to 100 nM.

Q: With `O=C(NC1(C(=O)O)C2CC3CC(C2)CC1C3)c1ccc(-c2cn(C3CCC(F)(F)CC3)c3cc(OC4CCCN(C5COC5)C4)ccc23)nc1C(F)(F)F` (racemic) [Compound I-235] as the compound, how does the EC50 [1] read?
A: Its EC50 is < 10 nM.

Q: Which EC50 [1] does the source give for `O=C(NC1(C(=O)O)C2CC3CC(C2)CC1C3)c1cnc(N2CC3(C=CCC3)c3cc(OC4CCN(c5ncccn5)CC4)ccc32)nc1C(F)(F)F` (racemic) [Compound I-243] here?
A: The EC50 was < 10 nM.

Q: How did the EC50 [1] turn out when `CC1(C)CCCC(NC(=O)c2cnc(-c3cn(C4CCC(F)(F)CC4)c4cc(OC5CCN(c6ncccn6)CC5)ccc34)nc2C(F)(F)F)(C(=O)O)C1` (racemic) [Compound I-262] was run?
A: Its EC50 is < 10 nM.

Q: `CC(C)(C)C(NC(=O)c1cnc(-c2cn(C3CCC(F)(F)CC3)c3cc(OC4CCN(c5ncccn5)CC4)ccc23)nc1C(F)(F)F)C(=O)O` (racemic) [Compound I-263] was tested. Which EC50 [1] did it give?
A: The EC50 was < 10 nM.

Q: How did the EC50 [1] turn out when `O=C(NC1(C(=O)O)C2CC3CC(C2)CC1C3)c1ccc(-c2cn(CC3CC3(F)F)c3cc(OC4CCN(c5ncccn5)CC4)ccc23)nc1C(F)(F)F` (racemic) [Compound I-266] was run?
A: The EC50 was < 10 nM.

Q: Which EC50 [1] does the source give for `CC(NC(=O)c1cnc(-c2cn(C3CCC(F)(F)CC3)c3cc(OC4CCN(c5ncccn5)CC4)ccc23)nc1C(F)(F)F)(C(=O)O)C1CCCCC1` (racemic) [Compound I-267] here?
A: Its EC50 is < 10 nM.

Q: How did the EC50 (human respiratory syncytial virus, HEp-2, 96 h, read-out: EC50, inhibitory effect against RSV type A (CPE inhibition)) turn out when `O=C(NC1(C(=O)O)C2CC3CC(C2)CC1C3)c1cnc(N2C(=O)C3(C=CCC3)c3cc(OC4CCN(c5ncccn5)CC4)ccc32)nc1C(F)(F)F` (racemic) [Compound I-269] was run?
A: The EC50 was 1.3 nM.

Q: Which EC50 [1] does the source give for `CC(C)(C)CC(NC(=O)c1cnc(-c2cn(C3CCC(F)(F)CC3)c3cc(OC4CCN(c5ncccn5)CC4)ccc23)nc1C(F)(F)F)C(=O)O` (racemic) [Compound I-271] here?
A: The EC50 was < 10 nM.

Q: `O=C(NC1(C(=O)O)C2CC3CC(C2)CC1C3)c1cnc(-c2cn(C3CCC(F)(F)CC3)c3cc(OC4CCN(C5CCOC5)CC4)ccc23)nc1C(F)(F)F` (racemic) [Compound I-277] was tested. Which EC50 [1] did it give?
A: The EC50 was < 10 nM.

Q: How did the EC50 [2] turn out when `O=C(NC1(C(=O)O)C2CC3CC(C2)CC1C3)c1cnc(N2CC3(CCN(C4COC4)C3)c3cc(OC4CCN(c5ncccn5)CC4)ccc32)nc1C(F)(F)F` (racemic) [Compound I-333] was run?
A: The EC50 was < 10 nM.

Q: For `O=C(NC1(C(=O)O)C2CC3CC(C2)CC1C3)c1cnc(N2CC3(CCN(c4ncc(F)cn4)C3)c3cc(OC4CCN(c5ncccn5)CC4)ccc32)nc1C(F)(F)F` (racemic) [Compound I-361], which EC50 [2] is on record?
A: The EC50 was < 10 nM.

Q: `CC(=O)N1CCC2(C1)CN(c1ncc(C(=O)NC3(C(=O)O)C4CC5CC(C4)CC3C5)c(C(F)(F)F)n1)c1ccc(OC3CCN(c4ncccn4)CC3)cc12` (racemic) [Compound I-362] was tested. Which EC50 [2] did it give?
A: Its EC50 is < 10 nM.

Q: For `CCNC(=O)N1CCC2(C1)CN(c1ncc(C(=O)NC3(C(=O)O)C4CC5CC(C4)CC3C5)c(C(F)(F)F)n1)c1ccc(OC3CCN(c4ncccn4)CC3)cc12` (racemic) [Compound I-364], which EC50 [2] is on record?
A: The EC50 was < 10 nM.

Q: How did the EC50 [1] turn out when `O=C(NC1(C(=O)O)C2CC3CC(C2)CC1C3)c1ccc(-c2cn(C3CCCOC3)c3cc(OC4CCN(c5ncccn5)CC4)ccc23)nc1C(F)(F)F` (racemic) [Compound I-367] was run?
A: The EC50 was < 10 nM.

Q: `O=C(NC1(C(=O)O)C2CC3CC(C2)CC1C3)c1cnc(-c2cn(C3CCOC3)c3cc(OC4CCN(c5ncc(F)cn5)CC4)ccc23)nc1C(F)(F)F` (racemic) [Compound I-410] was tested. Which EC50 [1] did it give?
A: Its EC50 is < 10 nM.

Q: For `CC(N1CCC(Oc2ccc3c(-c4ncc(C(=O)NC5(C(=O)O)C6CC7CC(C6)CC5C7)c(C(F)(F)F)n4)cn(C4CCC(F)(F)CC4)c3c2)CC1)C(F)(F)F` (racemic) [Compound I-449], which EC50 [1] is on record?
A: Its EC50 is < 10 nM.

Q: For `O=C(NC1(C(=O)O)C2CC3CC(C2)CC1C3)c1cnc(N2CC3(CCOCC3)c3cc(OCC(O)C(F)(F)F)ccc32)nc1C(F)(F)F` (racemic) [Compound I-458], which EC50 [1] is on record?
A: Its EC50 is < 10 nM.

Q: How did the EC50 [1] turn out when `O=C(NC1(C(=O)O)C2CC3CC(C2)CC1C3)c1cnc(-c2cn(C3CCC(F)(F)C3)c3cc(OC4CCN(c5ncc(F)cn5)CC4)ccc23)nc1C(F)(F)F` (racemic) [Compound I-470] was run?
A: Its EC50 is < 10 nM.

Q: Which EC50 [2] does the source give for `COc1cccc(COc2ccc3c(c2)CCN3c2ncc(C(=O)NC3(C(=O)O)CC4CCC3C4)c(C(F)(F)F)n2)c1` (single isomer, unassigned) [Compound I-17] here?
A: The EC50 was < 10 nM.

Q: How did the EC50 [1] turn out when `COc1cccc(COc2ccc3c(ccn3-c3ncc(C(=O)NC4(C(=O)O)CC5CCC4C5)c(C(F)(F)F)n3)c2)c1` (single isomer, unassigned) [Compound I-18] was run?
A: The EC50 was < 10 nM.

Q: With `COc1cccc(COc2ccc3c(c2)CCN3c2ncc(C(=O)NC3(C(=O)O)CC4CCC3C4)c(C(F)(F)F)n2)c1` (single isomer, unassigned) [Compound I-19] as the compound, how does the EC50 [2] read?
A: The EC50 was < 10 nM.

Q: For `O=C(NC1(C(=O)O)C2CC3CC1CC(O)(C3)C2)c1cnc(N2CCc3cc(OCCC4CCOCC4)ccc32)nc1C(F)(F)F` (single isomer, unassigned) [Compound I-97], which EC50 [2] is on record?
A: The EC50 was 10 to 100 nM.

Q: For `Cn1ncc2c1CCC(Oc1ccc3c(c1)C1(CCOCC1)CN3c1ncc(C(=O)NC3(C(=O)O)C4CC5CC(C4)CC3C5)c(C(F)(F)F)n1)C2` (single isomer, unassigned) [Compound I-191], which EC50 [2] is on record?
A: Its EC50 is < 10 nM.

Q: For `COC12CC3CC(C1)C(NC(=O)c1cnc(N4CC5(CCOCC5)c5cc(OC6CCN(c7ncccn7)CC6)ccc54)nc1C(F)(F)F)(C(=O)O)C(C3)C2` (single isomer, unassigned) [Compound I-210], which EC50 [1] is on record?
A: Its EC50 is < 10 nM.

Q: Which EC50 [2] does the source give for `COC12CC3CC(C1)C(NC(=O)c1cnc(N4CC5(CCOCC5)c5cc(OC6CCN(c7ncccn7)CC6)ccc54)nc1C(F)(F)F)(C(=O)O)C(C3)C2` (single isomer, unassigned) [Compound I-211] here?
A: Its EC50 is < 10 nM.

Q: How did the EC50 [2] turn out when `O=C(NC1(C(=O)O)C2CC3CC(C2)CC1C3)c1cnc(N2CC3(CC4CCC(C3)O4)c3cc(OC4CCN(c5ncccn5)CC4)ccc32)nc1C(F)(F)F` (single isomer, unassigned) [Compound I-300] was run?
A: The EC50 was < 10 nM.

Q: How did the EC50 [1] turn out when `CC1CC(Oc2ccc3c(-c4ncc(C(=O)NC5(C(=O)O)C6CC7CC(C6)CC5C7)c(C(F)(F)F)n4)cn(C4CCC(F)(F)CC4)c3c2)CCN1c1ncc(F)cn1` (single isomer, unassigned) [Compound I-385] was run?
A: Its EC50 is < 10 nM.

Q: How did the EC50 [2] turn out when `CC1CC(Oc2ccc3c(-c4ncc(C(=O)NC5(C(=O)O)C6CC7CC(C6)CC5C7)c(C(F)(F)F)n4)cn(C4CCC(F)(F)CC4)c3c2)CCN1c1ncc(F)cn1` (single isomer, unassigned) [Compound I-386] was run?
A: The EC50 was < 10 nM.

Q: With `CC1CN(c2ncccn2)CCC1Oc1ccc2c(-c3ncc(C(=O)NC4(C(=O)O)C5CC6CC(C5)CC4C6)c(C(F)(F)F)n3)cn(C3CCC(F)(F)CC3)c2c1` (single isomer, unassigned) [Compound I-391] as the compound, how does the EC50 [1] read?
A: The EC50 was < 10 nM.

Q: With `CC1CN(c2ncccn2)CCC1Oc1ccc2c(-c3ncc(C(=O)NC4(C(=O)O)C5CC6CC(C5)CC4C6)c(C(F)(F)F)n3)cn(C3CCC(F)(F)CC3)c2c1` (single isomer, unassigned) [Compound I-392] as the compound, how does the EC50 [2] read?
A: The EC50 was < 10 nM.

Q: Which EC50 [1] does the source give for `O=C(NC1(C(=O)O)C2CC3CC(C2)CC1C3)c1cnc(N2c3cc(F)c(OC4CCN(c5ncccn5)CC4)cc3C3CCCCCC32)nc1C(F)(F)F` (single isomer, unassigned) [Compound I-395] here?
A: Its EC50 is < 10 nM.

Q: For `O=C(NC1(C(=O)O)C2CC3CC(C2)CC1C3)c1ccc(-c2cn(C3CCC(F)CC3)c3cc(OC4CCN(c5ncc(F)cn5)CC4)ccc23)nc1C(F)(F)F` (single isomer, unassigned) [Compound I-398], which EC50 [2] is on record?
A: The EC50 was < 10 nM.

Q: With `CC1CN(c2ncccn2)CCC1Oc1ccc2c(-c3ncc(C(=O)NC4(C(=O)O)C5CC6CC(C5)CC4C6)c(C(F)(F)F)n3)cn(C3CCC(F)(F)CC3)c2c1` (single isomer, unassigned) [Compound I-404] as the compound, how does the EC50 [2] read?
A: Its EC50 is < 10 nM.

Q: With `CC1CN(c2ncccn2)CCC1Oc1ccc2c(-c3ncc(C(=O)NC4(C(=O)O)C5CC6CC(C5)CC4C6)c(C(F)(F)F)n3)cn(C3CCC(F)(F)CC3)c2c1` (single isomer, unassigned) [Compound I-405] as the compound, how does the EC50 [2] read?
A: The EC50 was < 10 nM.

Q: For `COC1CCC(n2cc(-c3ncc(C(=O)NC4(C(=O)O)C5CC6CC(C5)CC4C6)c(C(F)(F)F)n3)c3ccc(OC4CCN(c5ncc(F)cn5)CC4)cc32)CC1` (single isomer, unassigned) [Compound I-424], which EC50 [2] is on record?
A: The EC50 was < 10 nM.
